Holding throughout (assay): NCI tumour cell line growth inhibition, 48 h
Assay [1] concerns A498 renal.
For assay [2], the system named is SW-620 colon.
In assay [3] the test system is MDA-MB-435.
In assay [4] the test system is SF-295 CNS.
Assay [5] deals with TK-10 renal.
In assay [6] the test system is MCF7 breast.
In assay [7] the test system is HL-60(TB) leukemia.
The test system of assay [8] is CAKI-1 renal.
Assay [9] relates to MOLT-4 leukemia.
In assay [10] the test system is HCC-2998 colon.

The source of these data is PubChem BioAssay (NCI).

Molecules are shown by their SMILES. Values joined by “and” are separate entries in the source; they are usually repeats but may differ in a detail not shown here. Equal entries are not always repeated.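 Growth conditions: 96-well plates. Treatment: test compound, 48 hours, 5 concentrations. Analysis: linear interpolation between bracketing concentrations; unreached endpoints set to highest concentration. The concentration for 50% growth inhibition is given as GI50. At the TGI there is no net growth.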

With `O=C1c2ccccc2C(O)(O)C1(O)C1(O)C(=O)c2ccccc2C1(O)O` (configuration not stated), the TGI was above 100 µM in assay [1]; above 100 µM in [2]; 32.8 µM in assay [3]; 88.5 µM in [4]; 58.1 µM in assay [5]; 30.5 µM in [6]. Besides, the figures for the TGI in assay [7] and in assay [8] were 53.2 µM and above 100 µM, respectively.

Turning to `CC1CCC(NC(=O)N(CCCl)N=O)CC1` (configuration not stated), the TGI was 124 µM in assay [1]; 40.2 µM and 66.6 µM in [9]; 37.4 µM and 71.5 µM in [2]; 65.9 µM in assay [3]; 36.3 µM in [4]; 125 µM in assay [5]. The TGI in assay [6] was 110 µM; in assay [7], 24.1 µM and 72.2 µM; in [8], 37.5 µM and 53.2 µM; in [10], 93.9 µM. Also, the GI50 is 17.7 µM in assay [2]; 53.7 µM in assay [4]; 45.2 µM in assay [5]; 8.98 µM in [7]; 18.9 µM in [8].

Take `Cc1ccc(S(=O)(=O)N/N=C/c2c(O)ccc3ccccc23)cc1`: the TGI in assay [1] was 44.2 µM; in assay [9], above 100 µM; in assay [2], above 100 µM; in [3] it was 55.3 µM; in [4] it was 57.5 µM; in [5], above 100 µM. Besides, the TGI in [6] is above 100 µM; in [7], above 100 µM; in assay [8] it was 35.3 µM; in assay [10], 46.1 µM.

For the compound `CCN(CC)CCCC(C)Nc1ccnc2cc(Oc3ccccc3)ccc12` (configuration not stated), the TGI is 7.85 µM and 28.5 µM in [1]; 17.8 µM and 82.8 µM in [9]; 14.3 µM and 25.9 µM in assay [2]; 6.21 µM and 7.27 µM in assay [3]; 17.4 µM and 19 µM in assay [4]; 8.34 µM and 10.3 µM in assay [5]. Also, the TGI is 26.5 µM and 19.4 µM in [6]; 9.38 µM and 41.6 µM in assay [7]; 37.9 µM and 36.2 µM in [8]; 7.94 µM and 36.9 µM in assay [10]. The GI50 in assay [9] was 4.32 µM and 9.05 µM; in assay [2] it was 3.36 µM and 5.53 µM; in assay [3], 2.38 µM; in [4], 2.69 µM and 4.09 µM; in assay [5], 2.58 µM and 3.23 µM; in assay [6] it was 8.46 µM and 6.01 µM. Further, the GI50 in assay [7] is 3.24 µM and 13.1 µM; in [8], 13.1 µM and 5.96 µM; in assay [10], 2.34 µM and 6.92 µM.

With `CC(C)(C)OC(=O)N1CCN(CCn2cc(C(F)(F)F)c3c(Cl)ncnc32)CC1`, the GI50 in [1] is 18.2 µM; in [9], 2.62 µM; in [2], 2.2 µM; in assay [3], 1.84 µM; in assay [4] it was 14.5 µM; in [5], 19.7 µM. Also, the values for the GI50 in [6], in [7] and in [10] were 12.3 µM, 2.43 µM and 2.05 µM, respectively. Besides, the TGI in assay [1] was determined as 32.7 µM; in assay [9], 6.6 µM; in assay [2], 4.64 µM; in assay [3], 3.65 µM; in assay [4] it was 28.1 µM; in assay [5], 42.8 µM. Besides, the TGI in assay [6] was found to be 32.1 µM; in assay [7], 6.46 µM; in assay [10] it was 4.53 µM.

`COc1cc(OC(=O)c2ccccc2)cc2c1C(=O)C=CC2=O`: the TGI is 37.8 µM in [1]; 14.6 µM in assay [9]; 39.2 µM in [2]; 12 µM in [3]; 32.1 µM in assay [4]; 32.5 µM in [5]. Besides, the results for the TGI in [6], in assay [7] and in assay [8] were 52 µM, 3.04 µM and 37 µM, respectively.

With `O=[N+]([O-])O.[Cu+2].[NH-]CC[NH-].[NH-]CC[NH-]`, the GI50 in assay [1], in [9], in assay [2], in assay [3], in assay [4] and in assay [6] was above 10 µM throughout. The GI50 in assay [7], in assay [8] and in assay [10] was above 10 µM in each case. Also, the TGI in assay [1], in assay [9], in assay [2], in assay [3], in [4] and in assay [6] was above 10 µM each time. In addition, the TGI in [7], in assay [8] and in assay [10] was above 10 µM each time.

`COc1ccc(-c2nc(-c3nc4ccc(OC)cc4[nH]3)c3ccccn23)cc1`: the GI50 in assay [1] is 4.28 µM; in assay [9], 3.37 µM; in [2] it was 4.26 µM; in [3] it was 3.14 µM; in [5], 2.65 µM; in assay [6], 3.4 µM. Further, the GI50 was 2.55 µM in assay [7], 3.81 µM in assay [8] and 3.96 µM in [10]. Moreover, the TGI in [1] is above 100 µM; in assay [9], 16.9 µM; in [2], above 100 µM; in [3] it was above 100 µM; in assay [5], 25.6 µM; in [6], above 100 µM. The TGI in assay [7] was 7.75 µM; in assay [8] it was 49.4 µM; in [10] it was 46.4 µM.

`CCC1C2Cc3ccc(O)cc3C1(CC)CCN2C` (configuration not stated): the TGI in assay [1], in assay [9], in [2], in [3], in assay [4] and in assay [5] was above 100 µM in each case. Besides, the TGI in assay [6], in assay [7] and in assay [8] was above 100 µM throughout.

Take `Fc1ccc2c(c1)C1=NN(c3ccccc3)C(F)C1CO2` (configuration not stated): the GI50 in assay [1] was 11.4 µM; in [9], above 50 µM; in assay [2], 9.95 µM; in assay [3], 6.7 µM; in assay [4], 6.45 µM; in assay [5], 12.5 µM. The values for the GI50 in assay [6], in assay [7] and in [8] were 9.41 µM, 17.9 µM and 6.41 µM, respectively. In addition, the TGI is 21 µM in assay [1]; above 50 µM in [9]; 23.6 µM in [2]; 15.9 µM in assay [3]; 17.1 µM in [4]; 35.6 µM in [5]. Also, the TGI in [6] was above 50 µM; in assay [7], above 50 µM; in assay [8], 20.2 µM.
